Reference: PMC9929232, “On-demand male contraception via acute inhibition of soluble adenylyl cyclase” (Nature Communications, 2023)
“And” between values parts separate entries of the source, which are not always exact repeats. Identical values can stand only once.

How the values were obtained:
[1] = molecular target: T1, purified recombinant human sAC protein (Homo sapiens, UniProt Q96PN6); assay: In vitro adenylyl cyclase activity assay (two-column method);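 on cyclase activity (%): 100% equals DMSO vehicle-treated control activity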; type: biochemical; settings: for cyclase activity (%): Fig. 1c normalized replicates; for cyclase activity: Fig. 1c replicates
T1 construct: human sACt protein was incubated
T1 sequence (Q96PN6 1-469 limits assumed): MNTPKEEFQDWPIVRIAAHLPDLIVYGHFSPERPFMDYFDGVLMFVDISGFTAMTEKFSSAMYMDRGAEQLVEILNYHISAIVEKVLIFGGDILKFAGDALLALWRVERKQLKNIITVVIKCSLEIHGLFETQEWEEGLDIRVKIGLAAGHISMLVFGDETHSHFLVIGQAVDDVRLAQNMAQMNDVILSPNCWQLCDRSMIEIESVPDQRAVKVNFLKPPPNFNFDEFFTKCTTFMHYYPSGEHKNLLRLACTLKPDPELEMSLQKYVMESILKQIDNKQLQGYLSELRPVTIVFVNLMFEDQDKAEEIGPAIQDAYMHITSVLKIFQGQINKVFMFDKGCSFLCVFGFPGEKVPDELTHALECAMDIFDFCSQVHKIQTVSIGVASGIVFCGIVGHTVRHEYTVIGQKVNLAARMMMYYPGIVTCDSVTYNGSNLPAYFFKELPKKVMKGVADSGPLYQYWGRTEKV
Description: All in vitro adenylyl cyclase activity assays were performed via the “two-column” method measuring the conversion of [α-^32P] ATP into [^32P] cAMP[54], as previously described. Briefly, human sACt protein was incubated in buffer containing 50 mM Tris-HCl, pH 7.5, 4 mM MgCl2, 2 mM CaCl2, 1 mM ATP, 3 mM DTT, 40 mM NaHCO3 in the presence of the indicated concentrations of different sAC inhibitors or vehicle (1% DMSO).

[2] = test system: human sperm; assay: cAMP generation in human sperm in vitro, incl. wash-out by dilution; type: cell-based; settings: 30 minutes
Description: Samples of human semen were obtained from healthy volunteers with their prior written consent following a protocol approved by Weill Cornell Medicine’s Institutional Review Board (IRB 21-03023495). […] Semen was incubated for 30 min in a 37 °C incubator to liquefy. […] The tubes were incubated at a tilted angle of 45° at 37 °C for 60 min. Motile sperm were allowed to swim up into the HTF layer; immotile sperm and other cells or tissue debris remain in the ejaculate fraction. Up to 3 ml of the HTF layer was transferred to a fresh tube and washed twice in HTF by centrifugation (700 × g, 20 min). The supernatant was removed after the last centrifugation step and the sperm pellet was resuspended in 1 ml HTF. The purity and vitality of each sample was assessed via light microscopy. Sperm cell numbers were determined using a hemocytometer and adjusted to a concentration of 1 × 10^7 cells/ml.

[3] = test system: mouse sperm; assay: Flagellar beat frequency of tethered mouse sperm; type: cell-based
Description: (§1) An inverted dark-field video microscope (IX73; Olympus) with a 10 x objective (mouse sperm) or a 20 x objective (human sperm) (UPLSAPO, NA 0.8; Olympus) was combined with a high-speed camera (ORCA Fusion; Hamamatsu). Dark-field videos were recorded with a frame rate of 200 Hz. The temperature of the heated stage was set to 37 °C (stage top incubator WSKMX; TOKAI HIT). The images were preprocessed with the ImageJ plugin SpermQ Preparator (Gaussian blur with sigma 0.5 px; subtract background method with radius 5 px) and analyzed using the ImageJ plugin SpermQ[57]. The beat frequency was determined from the highest peak in the frequency spectrum of the curvature time course, obtained by Fast Fourier Transform.

[4] = test system: human sperm; assay: Flagellar beat frequency of tethered human sperm; type: cell-based
Description: as §1

[5] = test system: human sperm; assay: Acrosome reaction assay, human sperm, progesterone-evoked; type: cell-based; settings: Fig. 2h replicates, 5 μM TDI-10229 or 10 nM TDI-11861
Description: Acrosome reaction was induced by incubating mouse sperm with 50 mouse solubilized zonae pellucidae for 15 min at 37 °C. Human sperm were incubated with 10 μM progesterone for 30 min at 37 °C. […] Samples were air-dried on microscope slides and fixed for 30 minutes in 100% ethanol at room temperature (RT). For acrosome staining, mouse and human sperm were incubated for 30 min in the dark with 5 μg/ml PNA-FITC or 5 μg/ml PSA-FITC, respectively, and counterstained with 2 μg/ml DAPI. After curing, slides were analyzed using a Zeiss LSM 880 Laser Scanning Confocal Microscope; images were captured with two photomultiplier and one Gallium Arsenide Phosphide detector using ZEN Imaging software. For each condition, at least 600 cells were analyzed using ImageJ 1.52.

[6] = test system: mouse sperm; assay: cAMP generation in mouse sperm in vitro, incl. wash-out by dilution; settings: 12 minutes
Description: For capacitation, sperm were incubated for 90 min in TYH containing 3 mg/ml BSA and 25 mM NaHCO3 in a 37 °C incubator. To control for the consequences of dilution during isolation of epididymal mouse sperm for ex vivo assays, we assessed the ability of bicarbonate to induce a prototypical pattern of tyrosine phosphorylation (pY) which is a widely used molecular hallmark of capacitation[53]. Bicarbonate-induced pY is known to be sAC dependent in vitro[20],[22],[35]. For experiments studying sperm from injected mice, ‘swim out’ was performed in 200 μl TYH, which corresponded to a 1:10 dilution from epididymis (20 μg cauda in 200 μl buffer). Capacitation-induced changes were assessed by adding 50 µl of ‘swim out’ sperm to increasing volumes of capacitating TYH buffer.
cAMP generation was measured in mouse and human sperm. […] For human sperm, aliquots of 2 × 10^6 cells were incubated for 30 min in the presence or absence of sAC inhibitor in non-capacitating or capacitating HTF buffer. In both cases, 0.1% DMSO was used as vehicle control.
After 5 min, 150 µl of sperm/inhibitor mix was diluted into 1.35 ml non-capacitating or capacitating media with no inhibitor. […] Sperm lysates were centrifuged at 2000 × g for 3 min and the cAMP in the supernatant was acetylated and quantified using the Direct cAMP ELISA kit (Enzo).

[7] = concentration (uM) -0.52288 [sic]
[8] = concentration (uM) -1.95424 [sic]
[9] = concentration (uM) -2.43136 [sic]
[10] = concentration (uM) -2.90848 [sic]
[11] = concentration (uM) -3.38561 [sic]
[12] = concentration (uM) printed 0.477121
[13] = concentration (uM) printed -1.47712
[14] = sheet Fig. 2c replicates, 5 μM TDI-10229 or 10 nM TDI-11861 present
[15] = sheet Fig. 2d replicates, 5 min preincubation in 5 μM TDI-10229 or 10 nM TDI-11861, diluted 1:100 into inhibitor-free media
[16] = sheet Fig. 2a replicates, 5 μM TDI-10229 or 10 nM TDI-11861 present
[17] = sheet Fig. 2b replicates, 5 min preincubation in 5 μM TDI-10229 or 10 nM TDI-11861, diluted 1:100 into inhibitor-free media

cyclase activity (%) [1, 11]: 100% | cyclase activity (%) ([1]; concentration (uM) printed 1): 0%
SMILES: Cc1c(Cc2ccccc2)c(-c2cc(Cl)nc(N)n2)nn1C [TDI-10229, reference compound]
cyclase activity (%) ([1]; concentration (uM) 0): 9.237% and 13.938% and 16.2416% and 14.0981% and 17.1651% and 16.2955% | cyclase activity (%) [1, 7]: 31.1405% and 32.9975% and 35.8708% and 34.2006% and 36.7402% and 35.3317% | cyclase activity (%) ([1]; concentration (uM) -1 [sic]): 63.6617% and 56.9124% and 60.5839% and 60.8807% and 64.5679% and 61.7683% | cyclase activity (%) [1, 8]: 97.3105% and 99.8737% and 91.8341% and 99.076% and 99.9562% and 83.5123% | cyclase activity (%) [1, 9]: 102.738% and 99.4561% and 103.778% and 98.5001% and 102.473% and 98.7264% | cyclase activity (%) [1, 10]: 99.2726% and 96.965% and 102.643% and 103.079% and 106.167% and 104.578% | cyclase activity (%) [1, 12]: 2.892% and 2.778% and 4.319% and 3.785% and 3.6574% and 3.195% | cyclase activity (%) [1, 13]: 87.3934% and 85.1243% and 83.28% and 86.7752% and 79.7419% and 79.6259% | cyclase activity ([1]; concentration (uM) 0): 4537 and 5556.7 and 5828.8 and 5224.3 and 5509.4 and 5355.1 | cyclase activity [1, 7]: 10764.2 and 10900.3 and 11166.7 and 10456.8 and 10112.3 and 9643.4 | cyclase activity ([1]; concentration (uM) -1 [sic]): 20009.8 and 17605.2 and 17887.1 and 17401.4 and 16655.7 and 15598.8 | cyclase activity [1, 8]: 29576 and 29650 and 26385.2 and 27343.3 and 24976.9 and 20497.1 | cyclase activity [1, 9]: 31119 and 29532.9 and 29633.3 and 27193.4 and 25568.8 and 23924.4 | cyclase activity [1, 10]: 30133.8 and 28834.5 and 29324.4 and 28385.2 and 26437.3 and 25242.7 | cyclase activity [1, 11]: 30340.6 and 29685.4 and 28605.8 and 27583.8 and 24987.2 and 24211.3 | cyclase activity [1, 12]: 2733.4 and 2427.8 and 2586.5 and 2539.8 and 2333.2 and 2403.9 | cyclase activity ([1]; concentration (uM) printed 1): 1911.1 and 1649 and 1412.1 and 1554.7 and 1473.2 and 1684.2 | cyclase activity [1, 13]: 26756.6 and 25514.8 and 24059 and 24141.5 and 20223.7 and 19621.6 | cAMP, capacitation media [2, 14]: 0.877 pmol/10^6 sperm and 0.67 pmol/10^6 sperm and 0.652 pmol/10^6 sperm and 0.78 pmol/10^6 sperm and 1.141 pmol/10^6 sperm and 0.8484 pmol/10^6 sperm and 1.0045 pmol/10^6 sperm | cAMP, non-capacitation media [2, 14]: 0.136 pmol/10^6 sperm and 0.12 pmol/10^6 sperm and 0.2 pmol/10^6 sperm and 0.75 pmol/10^6 sperm and 0.55 pmol/10^6 sperm and 0.7798 pmol/10^6 sperm and 0.493 pmol/10^6 sperm | cAMP, capacitation media [2, 15]: 1.0484 pmol/10^6 sperm and 0.9036 pmol/10^6 sperm and 1.37 pmol/10^6 sperm and 1.1895 pmol/10^6 sperm and 1.866 pmol/10^6 sperm | cAMP, non-capacitation media [2, 15]: 0.7172 pmol/10^6 sperm and 0.3596 pmol/10^6 sperm and 1.05 pmol/10^6 sperm and 0.7885 pmol/10^6 sperm and 1.206 pmol/10^6 sperm | Beat frequency, Basal ([3]; distal 10 μm of flagellum, 5 μM TDI-10229 or 10 nM TDI-11861, mean ± SEM): 10.4 ± 0.8 Hz | Beat frequency, + HCO3- ([3]; distal 10 μm, 25 mM NaHCO3, 5 μM TDI-10229 or 10 nM TDI-11861, mean ± SEM): 11.7 ± 1.8 Hz | Beat frequency, Basal ([4]; distal 5 µm of flagellum, 5 μM TDI-10229 or 10 nM TDI-11861, mean ± SEM): 12.2 ± 0.8 Hz | Beat frequency, + HCO3- ([4]; distal 5 µm, 25 mM NaHCO3, 5 μM TDI-10229 or 10 nM TDI-11861, mean ± SEM): 14.5 ± 0.6 Hz | Acrosome reacted (%), Prog ([5]; 10 μM progesterone): 8% and 18.1667% and 7.5% and 9% and 9.5% and 17.6667% and 10% | Acrosome reacted (%), Prog + db-cAMP/IBMX ([5]; 10 μM progesterone, 5 mM db-cAMP/500 μM IBMX): 23% and 28.6636% and 15.5% and 15% and 16% and 30.6613% and 17.1667% | Acrosome reacted (%), basal + db-cAMP/IBMX ([5]; 5 mM db-cAMP/500 μM IBMX): 8.5% and 15.8333% and 7.5% and 6.5% and 7% and 21.8333% and 11.3333% | Acrosome reacted (%), basal ([5]; 180 min capacitating media): 6% and 15.1667% and 8% and 7% and 7.5% and 16.3548% and 6.667% | cAMP, capacitation media [6, 16]: 0.708 pmol/10^6 sperm and 0.223 pmol/10^6 sperm and 0.8377 pmol/10^6 sperm and 0.328 pmol/10^6 sperm and 0.317 pmol/10^6 sperm and 0.164 pmol/10^6 sperm and 0.248 pmol/10^6 sperm and 0.209 pmol/10^6 sperm and 0.814 pmol/10^6 sperm and 0.028 pmol/10^6 sperm | cAMP, non-capacitation media [6, 16]: 0.791 pmol/10^6 sperm and 0.172 pmol/10^6 sperm and 0.69 pmol/10^6 sperm and 0.464 pmol/10^6 sperm and 0.354 pmol/10^6 sperm and 0.286 pmol/10^6 sperm and 0.57 pmol/10^6 sperm and 0.578 pmol/10^6 sperm and 1.32 pmol/10^6 sperm and 0.473 pmol/10^6 sperm | cAMP, capacitation media [6, 17]: 0.7514 pmol/10^6 sperm and 0.838 pmol/10^6 sperm and 0.907 pmol/10^6 sperm and 0.4366 pmol/10^6 sperm and 0.08556 pmol/10^6 sperm and 0.441 pmol/10^6 sperm and 0.751 pmol/10^6 sperm and 1.195 pmol/10^6 sperm | cAMP, non-capacitation media [6, 17]: 0.7446 pmol/10^6 sperm and 0.94 pmol/10^6 sperm and 1.147 pmol/10^6 sperm and 0.8426 pmol/10^6 sperm and 0.7363 pmol/10^6 sperm and 0.601 pmol/10^6 sperm and 0.752 pmol/10^6 sperm and 1.525 pmol/10^6 sperm
